Tests used:
CYP3A4 = CYP3A4 (Homo sapiens, UniProt P08684); assay: in vitro; settings: recombinant CYP3A4
Cytochrome P450 1A2 = molecular target: T1, Cytochrome P450 1A2 (Homo sapiens, UniProt P05177)
T1 sequence (P05177 whole entry): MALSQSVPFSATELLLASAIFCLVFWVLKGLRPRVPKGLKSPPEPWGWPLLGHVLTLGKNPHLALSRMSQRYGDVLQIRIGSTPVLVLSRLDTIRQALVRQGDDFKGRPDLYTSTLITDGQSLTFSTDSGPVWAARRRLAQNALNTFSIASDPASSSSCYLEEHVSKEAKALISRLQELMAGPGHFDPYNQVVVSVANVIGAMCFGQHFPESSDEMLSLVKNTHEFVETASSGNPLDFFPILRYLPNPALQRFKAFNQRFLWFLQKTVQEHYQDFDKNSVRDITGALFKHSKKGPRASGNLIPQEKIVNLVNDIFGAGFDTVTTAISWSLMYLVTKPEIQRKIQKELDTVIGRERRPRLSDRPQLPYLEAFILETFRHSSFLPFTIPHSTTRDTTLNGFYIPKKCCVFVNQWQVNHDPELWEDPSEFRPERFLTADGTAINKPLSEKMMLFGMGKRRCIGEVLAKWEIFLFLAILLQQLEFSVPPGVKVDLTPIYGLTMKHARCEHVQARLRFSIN

[1] = molecular target: T2, Sodium-dependent noradrenaline transporter (Homo sapiens, UniProt P23975)
CYP2D6 = CYP2D6 (Homo sapiens, UniProt P10635); assay: in vitro; settings: recombinant CYP2D6
CYP2C19 = CYP2C19 (Homo sapiens, UniProt P33261); assay: in vitro; settings: recombinant CYP2C19
[2] = molecular target: Sodium-dependent dopamine transporter (Homo sapiens, UniProt Q01959)
[3] = molecular target: Voltage-gated inwardly rectifying potassium channel KCNH2 (Homo sapiens, UniProt Q12809); assay: Inhibition of human ERG expressed in CHO-K1 cells by patch-clamp electrophysiology method; type: cell-based
Cytochrome P450 2C9 = Cytochrome P450 2C9 (Homo sapiens, UniProt P11712)
Cytochrome P450 2D6 = Cytochrome P450 2D6 (Homo sapiens, UniProt P10635)
[4] = molecular target: T3, Sodium-dependent serotonin transporter (Homo sapiens, UniProt P31645); assay: Ratio of duloxetine IC50 to compound IC50 for serotonin reuptake at human SERT expressed in HEK293 cells at 0.1 uM after 15 mins by fluorescence neurotransmitter transporter assay; type: cell-based
Target sequence in this assay (P31645 whole entry, looked up): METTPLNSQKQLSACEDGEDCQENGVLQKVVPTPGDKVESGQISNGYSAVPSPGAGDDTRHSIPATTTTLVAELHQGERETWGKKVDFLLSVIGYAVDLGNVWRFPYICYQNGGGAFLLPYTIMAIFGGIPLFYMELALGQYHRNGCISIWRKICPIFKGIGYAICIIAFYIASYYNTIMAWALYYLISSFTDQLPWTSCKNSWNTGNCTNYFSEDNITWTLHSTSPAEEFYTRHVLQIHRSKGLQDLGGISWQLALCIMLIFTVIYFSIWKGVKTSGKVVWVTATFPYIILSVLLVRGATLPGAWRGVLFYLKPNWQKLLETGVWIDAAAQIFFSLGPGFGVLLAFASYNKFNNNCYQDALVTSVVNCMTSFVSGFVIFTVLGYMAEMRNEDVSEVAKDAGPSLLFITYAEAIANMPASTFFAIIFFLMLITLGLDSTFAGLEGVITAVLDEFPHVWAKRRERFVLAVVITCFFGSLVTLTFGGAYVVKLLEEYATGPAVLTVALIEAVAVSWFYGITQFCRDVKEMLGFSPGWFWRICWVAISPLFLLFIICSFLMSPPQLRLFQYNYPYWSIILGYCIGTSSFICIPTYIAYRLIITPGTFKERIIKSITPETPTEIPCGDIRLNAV

[5] = molecular target: T3, Sodium-dependent serotonin transporter; assay: Ratio of venlafaxine IC50 to compound IC50 for serotonin reuptake at human SERT expressed in HEK293 cells at 0.1 uM after 15 mins by fluorescence neurotransmitter transporter assay; type: cell-based
Target sequence in this assay (P31645 whole entry, looked up): as above

[6] = molecular target: T3, Sodium-dependent serotonin transporter; settings: HEK293, at 1 µM
Target sequence in this assay (P31645 whole entry, looked up): as above

[7] = molecular target: T3, Sodium-dependent serotonin transporter; settings: HEK293, at 0.1 µM
Target sequence in this assay (P31645 whole entry, looked up): as above

[8] = Stability in human liver microsomes assessed as compound remaining at 1 uM after 30 mins by LC/MS analysis; type: ADME; settings: read-out: Stability
CYP1A2 = molecular target: T4, CYP1A2 (Homo sapiens, UniProt P05177); assay: in vitro; settings: recombinant CYP1A2
T4 sequence (P05177 whole entry): T1 sequence (P05177 whole entry)

[9] = molecular target: T2, Sodium-dependent noradrenaline transporter; assay: Ratio of duloxetine IC50 to compound IC50 for norepinephrine reuptake at human NET expressed in HEK293 cells at 0.1 uM after 15 mins by fluorescence neurotransmitter transporter assay; type: cell-based
[10] = molecular target: T2, Sodium-dependent noradrenaline transporter; assay: Ratio of venlafaxine IC50 to compound IC50 for norepinephrine reuptake at human NET expressed in HEK293 cells at 0.1 uM after 15 mins by fluorescence neurotransmitter transporter assay; type: cell-based
[11] = molecular target: T3, Sodium-dependent serotonin transporter; type: cell-based, HEK293
Target sequence in this assay (P31645 whole entry): as the sequence (P31645 whole entry, looked up) above

Cytochrome P450 2C19 = Cytochrome P450 2C19 (Homo sapiens, UniProt P33261)
Cytochrome P450 3A4 = Cytochrome P450 3A4 (Homo sapiens, UniProt P08684)
CYP2C9 = CYP2C9 (Homo sapiens, UniProt P11712); assay: in vitro; settings: recombinant CYP2C9
[12] = molecular target: T3, Sodium-dependent serotonin transporter; settings: HEK293, at 10 µM
Target sequence in this assay (P31645 whole entry, looked up): as above

Chain of CYP2C9 (P11712 whole entry): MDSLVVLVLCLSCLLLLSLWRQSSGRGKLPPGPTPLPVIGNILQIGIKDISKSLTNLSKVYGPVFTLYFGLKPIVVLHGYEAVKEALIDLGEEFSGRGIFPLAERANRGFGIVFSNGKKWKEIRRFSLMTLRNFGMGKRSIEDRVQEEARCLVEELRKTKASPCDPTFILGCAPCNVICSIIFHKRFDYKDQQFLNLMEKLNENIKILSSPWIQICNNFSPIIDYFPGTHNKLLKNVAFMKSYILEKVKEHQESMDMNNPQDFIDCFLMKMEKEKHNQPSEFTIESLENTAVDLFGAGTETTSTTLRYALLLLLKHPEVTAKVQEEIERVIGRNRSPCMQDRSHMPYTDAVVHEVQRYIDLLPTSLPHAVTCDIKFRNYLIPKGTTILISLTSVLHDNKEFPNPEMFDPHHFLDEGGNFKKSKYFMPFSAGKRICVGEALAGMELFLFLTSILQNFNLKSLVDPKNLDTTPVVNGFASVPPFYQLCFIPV
Chain of Cytochrome P450 2C9 (P11712 whole entry): as above
T2 sequence (P23975 whole entry): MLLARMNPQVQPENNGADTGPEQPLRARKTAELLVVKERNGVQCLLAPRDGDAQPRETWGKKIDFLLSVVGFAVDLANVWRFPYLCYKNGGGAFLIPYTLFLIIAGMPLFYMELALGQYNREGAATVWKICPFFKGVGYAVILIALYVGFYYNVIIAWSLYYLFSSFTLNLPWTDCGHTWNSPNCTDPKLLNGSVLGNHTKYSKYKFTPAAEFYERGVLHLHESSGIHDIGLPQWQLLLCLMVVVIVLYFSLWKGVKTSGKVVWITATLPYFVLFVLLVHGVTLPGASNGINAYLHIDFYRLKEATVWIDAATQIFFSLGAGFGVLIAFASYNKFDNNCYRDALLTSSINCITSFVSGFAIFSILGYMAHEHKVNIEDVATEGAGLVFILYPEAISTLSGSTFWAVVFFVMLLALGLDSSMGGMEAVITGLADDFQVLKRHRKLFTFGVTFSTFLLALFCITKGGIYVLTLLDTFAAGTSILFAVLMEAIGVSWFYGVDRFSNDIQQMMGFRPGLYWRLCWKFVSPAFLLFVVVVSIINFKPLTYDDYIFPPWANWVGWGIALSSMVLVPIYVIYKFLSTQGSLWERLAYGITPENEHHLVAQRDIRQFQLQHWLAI
Chain of CYP2C19 (P33261 whole entry): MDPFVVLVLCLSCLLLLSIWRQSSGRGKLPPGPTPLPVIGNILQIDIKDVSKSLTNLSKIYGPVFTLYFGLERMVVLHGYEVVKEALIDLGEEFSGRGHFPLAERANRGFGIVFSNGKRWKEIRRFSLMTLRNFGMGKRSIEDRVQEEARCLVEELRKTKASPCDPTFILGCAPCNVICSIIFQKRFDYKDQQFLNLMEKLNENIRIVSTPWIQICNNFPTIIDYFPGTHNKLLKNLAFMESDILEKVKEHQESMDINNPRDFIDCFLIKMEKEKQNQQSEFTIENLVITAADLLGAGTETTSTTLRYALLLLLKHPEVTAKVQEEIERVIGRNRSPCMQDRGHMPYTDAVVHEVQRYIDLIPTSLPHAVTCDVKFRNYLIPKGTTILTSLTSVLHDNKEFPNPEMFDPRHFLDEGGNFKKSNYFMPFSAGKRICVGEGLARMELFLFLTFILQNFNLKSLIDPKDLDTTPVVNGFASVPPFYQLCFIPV
Chain of Cytochrome P450 2C19 (P33261 whole entry): as above
Chain of Cytochrome P450 2D6 (P10635 whole entry): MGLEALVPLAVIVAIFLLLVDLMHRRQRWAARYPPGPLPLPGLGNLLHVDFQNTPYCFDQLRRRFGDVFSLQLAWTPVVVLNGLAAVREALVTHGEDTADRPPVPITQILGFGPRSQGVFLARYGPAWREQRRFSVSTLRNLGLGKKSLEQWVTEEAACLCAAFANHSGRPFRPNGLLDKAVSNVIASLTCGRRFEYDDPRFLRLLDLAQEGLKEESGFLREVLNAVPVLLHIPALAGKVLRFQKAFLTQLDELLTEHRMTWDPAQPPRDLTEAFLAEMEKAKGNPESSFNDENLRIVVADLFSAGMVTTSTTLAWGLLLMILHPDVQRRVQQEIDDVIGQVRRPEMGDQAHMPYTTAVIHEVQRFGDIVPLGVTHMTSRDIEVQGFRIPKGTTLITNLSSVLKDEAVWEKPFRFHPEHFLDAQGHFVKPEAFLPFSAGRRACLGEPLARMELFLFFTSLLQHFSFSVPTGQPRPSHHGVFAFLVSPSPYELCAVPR
Chain of CYP2D6 (P10635 whole entry): as above

| Compound | inhibition at 10 µM (CYP3A4) [%] | IC50 (Cytochrome P450 1A2) [nM] | IC50 [1] [nM] | inhibition at 10 µM (CYP2D6) [%] | inhibition at 10 µM (CYP2C19) [%] | IC50 [2] [nM] | IC50 (Cytochrome P450 2C9) [nM] | IC50 (Cytochrome P450 2D6) [nM] | Ratio IC50 [4] | Ratio IC50 [5] | inhibition [6] [%] | inhibition [7] [%] | remaining at 0.5 h, 1 µM [8] [%] | inhibition at 10 µM (CYP1A2) [%] | Ratio IC50 [9] | Ratio IC50 [10] | IC50 [11] [nM] | IC50 (Cytochrome P450 2C19) [nM] | IC50 (Cytochrome P450 3A4) [nM] | inhibition [12] [%] | further results |
| --- | --- | --- | --- | --- | --- | --- | --- | --- | --- | --- | --- | --- | --- | --- | --- | --- | --- | --- | --- | --- | --- |
| Fc1cccc(OC(CC2CNC2)c2ccc(Cl)c(F)c2)c1 (stereo unspecified) | 11 | 13000 | 14.6 | 13 | 6.4 | 35.6 | 3100 | 4000 | > 7 | > 7 | 100 | 98 | 73 | 30 | > 7 | > 7 | 36.6 | 210 | 510 | 100 | IC50 [3]: 1460 nM; inhibition at 10 µM (CYP2C9): 11% |
| Fc1ccc(OC(CC2CNC2)c2ccc(Cl)c(F)c2)cc1 (stereo unspecified) |  | 19000 | 32.5 |  |  | 143 | 2400 | 1000 | > 7 | > 7 | 100 | 72 | 85 |  | > 7 | > 7 | 58.1 | 1300 | 400 | 100 |  |
| Fc1cc(C(CC2CNC2)Oc2cccc(Cl)c2)ccc1Cl (stereo unspecified) | 13 | 15000 | 30 | 7.9 | 3.3 | 82.5 | 1100 | 530 | > 7 | > 7 | 100 | 87 | 57 | 40 | > 7 | > 7 | 47.1 | 250 | 600 | 100 | inhibition at 10 µM (CYP2C9): 4.2% |
| Fc1cc(C(CC2CNC2)Oc2ccccc2F)ccc1Cl (stereo unspecified) | 7.2 | 44000 | 15.9 | 9.6 | 7 | 63.9 | 2200 | 8700 | > 7 | > 7 | 100 | 77 | 71 | 33 | > 7 | > 7 | 46.3 | 250 | 710 | 100 | IC50 [3]: 1410 nM; inhibition at 10 µM (CYP2C9): 12% |
